Experimental data reported in US20260226077A1, “TYPE II TOPOISOMERASE INHIBITORS AND METHODS OF MAKING AND USING THEREOF” (Ohio State Innovation Foundation, priority 2023, published 2026).
Converted amounts (≈) assume the structure as drawn. Marks after values point to notes of the source that are not given here.

Legend:
Bacillus anthracis = assay: microbe, parasite or virus in culture; format: cell-based
[1] = all channels
Moraxella catarrhalis = assay: MIC50/90 against Moraxella catarrhalis; format: cell-based; details: n = 10
Yersinia pestis = assay: microbe, parasite or virus in culture; format: cell-based
[2] = system: Pseudomonas aeruginosa 27853; assay: MIC against Pseudomonas aeruginosa 27853; format: cell-based
Mycobacterium avium = assay: MIC50 against Mycobacterium avium; format: cell-based; details: n = 4
physchem = details: pH 7.4, aqueous buffer, kinetic from dmso stock, Kinetic solubility at pH 7.4-7.5 (μM)
[3] = not given; remark: listed apart in the source
Streptococcus pyogenes = assay: MIC50/90 against Streptococcus pyogenes; format: cell-based
[4] = not given; remark: listed apart in the source
in vitro [5] = details: rat, plasma
TopoIV/gyrase = TopoIV/gyrase inhibition ratio; format: biochemical
Enterococcus spp. = assay: MIC50/90 against Enterococcus spp.; format: cell-based; details: n = 10 (147), n = 20 (others)
S. aureus CF isolate = assay: MIC against S. aureus CF isolate; format: cell-based; details: Staphylococcus aureus
[6] = system: Acinetobacter baumannii 19606; assay: MIC against Acinetobacter baumannii 19606; format: cell-based
Francisella tularensis = assay: microbe, parasite or virus in culture; format: cell-based
Dog microsomal stability = format: in vitro ADME; details: microsomes, read-out: Dog microsom. t1/2
Staphylococcus aureus = assay: MIC50/90 against Staphylococcus aureus isolates; format: cell-based; details: n = 30 (147), n = 100 (284, 319, gepotidacin)
in vitro [7] = details: human, hepatocytes
Streptococcus pneumoniae = assay: MIC50/90 against Streptococcus pneumoniae; format: cell-based
S. aureus 29213 = assay: MIC against S. aureus 29213; format: cell-based; details: Staphylococcus aureus
[8] = Permeability: MDCK II A->B; format: in vitro ADME; details: dog
in vitro [9] = details: mouse, plasma
Escherichia coli 25922 = assay: MIC against Escherichia coli 25922; format: cell-based
M121K = assay: MIC against M121K mutant; format: cell-based
Neisseria gonorrhoeae = assay: MIC50/90 against Neisseria gonorrhoeae; format: cell-based
[10] = in vivo
[11] = not given; remark: listed apart in the source
[12] = not given; remark: listed apart in the source
FQ-R MRSA = assay: MIC against FQ-R MRSA isolates; format: cell-based, Staphylococcus aureus; details: Staphylococcus aureus, MRSA; n = 15 (147), n = 25 (284, 319, gepotidacin)
Rat microsomal stability = format: in vitro ADME; details: microsomes, read-out: Rat microsom. t1/2
S. aureus USA300 = assay: MIC against S. aureus USA300; format: cell-based; details: Staphylococcus aureus
hERG = hERG (Homo sapiens, UniProt Q12809); assay: hERG inhibition; format: cell-based
[13] = Monkey microsomal stability; format: in vitro ADME; details: microsomes, read-out: Monkey microsom. t1/2
S. aureus ATCC 29213 = format: cell-based; details: Using S. aureus ATCC 29213 and four additional strains of S. aureus
in vitro [14] = details: human, plasma
In vitro micronucleus = format: cell-based
K562 = K562 cytotoxicity; format: cell-based; details: Homo sapiens
[15] = not given; remark: listed apart in the source
[16] = Human microsomal stability; format: in vitro ADME; details: microsomes, read-out: Human microsom. t1/2
D83N = assay: MIC against D83N mutant; format: cell-based
[17] = system: Burkholderia pseudomallei; assay: microbe, parasite or virus in culture; format: cell-based
[18] = Neisseria gonorrhoeae, n = 17 (284, gepotidacin), n = 110 (147)

hERG, sequence (Q12809 whole entry): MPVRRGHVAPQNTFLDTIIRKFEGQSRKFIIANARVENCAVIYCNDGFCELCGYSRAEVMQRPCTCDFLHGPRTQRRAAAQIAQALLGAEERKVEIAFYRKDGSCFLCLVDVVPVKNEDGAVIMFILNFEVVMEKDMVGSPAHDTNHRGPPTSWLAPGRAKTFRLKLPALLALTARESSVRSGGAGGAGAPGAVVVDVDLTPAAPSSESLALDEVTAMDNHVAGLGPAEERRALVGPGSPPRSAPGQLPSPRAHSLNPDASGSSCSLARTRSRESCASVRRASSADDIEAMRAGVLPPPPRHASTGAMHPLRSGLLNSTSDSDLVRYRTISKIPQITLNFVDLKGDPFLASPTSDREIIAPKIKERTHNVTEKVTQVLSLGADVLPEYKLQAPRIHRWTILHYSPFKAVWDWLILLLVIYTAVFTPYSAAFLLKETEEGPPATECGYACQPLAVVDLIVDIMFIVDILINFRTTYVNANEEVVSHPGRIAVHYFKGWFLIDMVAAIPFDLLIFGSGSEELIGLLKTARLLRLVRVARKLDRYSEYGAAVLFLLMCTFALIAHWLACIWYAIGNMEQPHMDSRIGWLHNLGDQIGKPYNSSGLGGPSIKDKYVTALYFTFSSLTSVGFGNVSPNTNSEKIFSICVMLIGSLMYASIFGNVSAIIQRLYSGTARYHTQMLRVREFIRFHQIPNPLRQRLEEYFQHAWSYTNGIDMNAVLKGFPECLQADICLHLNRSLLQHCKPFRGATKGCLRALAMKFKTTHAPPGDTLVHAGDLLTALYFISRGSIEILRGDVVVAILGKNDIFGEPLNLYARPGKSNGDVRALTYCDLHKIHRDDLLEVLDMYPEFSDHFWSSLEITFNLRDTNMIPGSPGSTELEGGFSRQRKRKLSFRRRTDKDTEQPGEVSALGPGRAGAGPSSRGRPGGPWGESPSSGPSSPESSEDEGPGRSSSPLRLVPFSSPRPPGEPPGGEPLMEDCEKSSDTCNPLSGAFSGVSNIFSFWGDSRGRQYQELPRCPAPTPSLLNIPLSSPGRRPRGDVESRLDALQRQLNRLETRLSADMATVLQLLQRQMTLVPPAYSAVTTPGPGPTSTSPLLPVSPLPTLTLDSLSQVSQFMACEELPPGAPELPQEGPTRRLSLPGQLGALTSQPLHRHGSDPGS

Structure (SMILES): COc1ccc2ncc(F)c(C[C@H](O)[C@H]3OC[C@H](NCc4cnc5c(n4)NC(=O)CO5)CO3)c2n1 [Compound 284, 6-(((2-((S)-2-(3-fluoro-6-methoxy-1,5-naphthyridin-4-yl)-1-hydroxyethyl)-trans-1,3-dioxan-5-yl)amino)methyl)-2H-pyrazino[2,3-b][1,4]oxazin-3(4H)-one]
- MIC50 (Bacillus anthracis; read-out: Bacillus anthracis MIC50 (μg/mL)): 0.06 µg/mL (≈ 0.123 µM)
- MIC90 (Bacillus anthracis; read-out: Bacillus anthracis MIC90 (μg/mL)): 0.25 µg/mL (≈ 0.514 µM)
- Comprehensive in vitro proarrhythmia assay at 100 μM, inhibition [1]: All <25%
- MIC50 (Moraxella catarrhalis): 0.12 µg/mL (≈ 0.247 µM)
- MIC90 (Moraxella catarrhalis): 0.25 µg/mL (≈ 0.514 µM)
- MIC50 (Yersinia pestis; read-out: Yersinia pestis MIC50 (μg/mL)): 2 µg/mL (≈ 4.11 µM)
- MIC90 (Yersinia pestis; read-out: Yersinia pestis MIC90 (μg/mL)): 8 µg/mL (≈ 16.4 µM)
- MIC [2]: 64 µg/mL (≈ 132 µM)
- MIC50 (Mycobacterium avium): 4 µg/mL (≈ 8.22 µM)
- solubility kinetic (physchem): 118 µM (≈ 57.2 µg/mL)
- Human plasma protein binding (% unbound): 10 % unbound
- Rat plasma protein binding (% unbound) [3]: 4 % unbound
- MIC50 (Streptococcus pyogenes; n = 5 (147), n = 10 (others)): 0.5 µg/mL (≈ 1.03 µM)
- MIC90 (Streptococcus pyogenes; n = 10): 2 µg/mL (≈ 4.11 µM)
- Dog plasma protein binding (% unbound) [4]: 20 % unbound
- half-life (in vitro [5]): > 2 h
- TopoIV/gyrase ratio (TopoIV/gyrase): 0.28
- MIC50 (Enterococcus spp.): 1 µg/mL (≈ 2.06 µM)
- MIC90 (Enterococcus spp.): 2 µg/mL (≈ 4.11 µM)
- MIC (S. aureus CF isolate): 0.125 to 0.25 µg/mL (≈ 0.257 to 0.514 µM)
- MIC [6]: 8 to 16 µg/mL (≈ 16.4 to 32.9 µM)
- MIC50 (Francisella tularensis; read-out: Francisella tularensis MIC50 (μg/mL)): 0.5 µg/mL (≈ 1.03 µM)
- MIC90 (Francisella tularensis; read-out: Francisella tularensis MIC90 (μg/mL)): 4 µg/mL (≈ 8.22 µM)
- half-life (Dog microsomal stability): > 2 h
- MIC50 (Staphylococcus aureus): 0.12 µg/mL (≈ 0.247 µM)
- MIC90 (Staphylococcus aureus): 0.25 µg/mL (≈ 0.514 µM)
- half-life (in vitro [7]): > 4 h
- MIC50 (Streptococcus pneumoniae; n = 5 (147), n = 10 (others)): 0.5 µg/mL (≈ 1.03 µM)
- MIC90 (Streptococcus pneumoniae; n = 10): 1 µg/mL (≈ 2.06 µM)
- MIC (S. aureus 29213): 0.125 to 0.25 µg/mL (≈ 0.257 to 0.514 µM)
- Papp A→B [8]: 0.74 ×10⁻⁶ cm/s
- half-life (in vitro [9]): > 2 h
- Escherichia coli 25922 MIC (Escherichia coli 25922): 16 µg/mL
- MIC (M121K): 1 to 4 µg/mL (≈ 2.06 to 8.22 µM)
- MIC50 (Neisseria gonorrhoeae; Neisseria gonorrhoeae, n = 100): 0.5 µg/mL (≈ 1.03 µM)
- MIC50 (Neisseria gonorrhoeae; [18]): 1 µg/mL (≈ 2.06 µM)
- MIC90 (Neisseria gonorrhoeae; [18]): 2 µg/mL (≈ 4.11 µM)
- Neisseria gonorrhoeae MIC90 (Neisseria gonorrhoeae; n = 100): 2 µg/mL
- Mouse Vdss (L) [10]: 0.53*** L
- Kinetic solubility at pH 7.4-7.5 (μM) [11]: > 200 μM
- Mouse plasma protein binding (% unbound) [12]: 31 % unbound
- MIC90 (FQ-R MRSA): 0.12 µg/mL (≈ 0.247 µM)
- half-life (Rat microsomal stability): > 2 h
- MIC (S. aureus USA300): 0.125 to 0.25 µg/mL (≈ 0.257 to 0.514 µM)
- IC50 (hERG): 104 µM
- half-life [13]: > 2 h
- Resistance freq. (at 8X MIC) (S. aureus ATCC 29213): <9.62 × 10^−10**
- half-life (in vitro [14]): > 2 h
- In vitro micronucleus (In vitro micronucleus): Pos. at high
- IC50 (K562): > 200 µM
- Safety44 screen at 100 μM [15]: None >50%
- half-life [16]: > 2 h
- MIC (D83N): 1 to 2 µg/mL (≈ 2.06 to 4.11 µM)
- MIC50 ([17]; read-out: Burkholderia pseudomallei MIC50 (μg/mL)): 32 µg/mL (≈ 65.8 µM)
- MIC90 ([17]; read-out: Burkholderia pseudomallei MIC90 (μg/mL)): 64 µg/mL (≈ 132 µM)
